From ChEMBL document CHEMBL5661973, “BI 2536, a potent and selective inhibitor of polo-like kinase 1, inhibits tumor growth in vivo” (Curr Biol, 2007)
One block for each compound: values may come before it. The source made the active and inactive calls. The rule behind the calls is not given here.

What was measured:
[1] = molecular target: Serine/threonine-protein kinase PAK 2 (Homo sapiens, UniProt Q13177); experiment: Inhibition of PAK2 (unknown origin)
[2] = molecular target: Serine/threonine-protein kinase B-raf (Homo sapiens, UniProt P15056); experiment: Inhibition of B-RAF (unknown origin)
[3] = molecular target: Phosphatidylinositol 4,5-bisphosphate 3-kinase catalytic subunit alpha isoform (Homo sapiens, UniProt P42336); experiment: Inhibition of PI3Ka (unknown origin)
Sequence of Phosphatidylinositol 4,5-bisphosphate 3-kinase catalytic subunit alpha isoform (P42336 whole entry, canonical isoform): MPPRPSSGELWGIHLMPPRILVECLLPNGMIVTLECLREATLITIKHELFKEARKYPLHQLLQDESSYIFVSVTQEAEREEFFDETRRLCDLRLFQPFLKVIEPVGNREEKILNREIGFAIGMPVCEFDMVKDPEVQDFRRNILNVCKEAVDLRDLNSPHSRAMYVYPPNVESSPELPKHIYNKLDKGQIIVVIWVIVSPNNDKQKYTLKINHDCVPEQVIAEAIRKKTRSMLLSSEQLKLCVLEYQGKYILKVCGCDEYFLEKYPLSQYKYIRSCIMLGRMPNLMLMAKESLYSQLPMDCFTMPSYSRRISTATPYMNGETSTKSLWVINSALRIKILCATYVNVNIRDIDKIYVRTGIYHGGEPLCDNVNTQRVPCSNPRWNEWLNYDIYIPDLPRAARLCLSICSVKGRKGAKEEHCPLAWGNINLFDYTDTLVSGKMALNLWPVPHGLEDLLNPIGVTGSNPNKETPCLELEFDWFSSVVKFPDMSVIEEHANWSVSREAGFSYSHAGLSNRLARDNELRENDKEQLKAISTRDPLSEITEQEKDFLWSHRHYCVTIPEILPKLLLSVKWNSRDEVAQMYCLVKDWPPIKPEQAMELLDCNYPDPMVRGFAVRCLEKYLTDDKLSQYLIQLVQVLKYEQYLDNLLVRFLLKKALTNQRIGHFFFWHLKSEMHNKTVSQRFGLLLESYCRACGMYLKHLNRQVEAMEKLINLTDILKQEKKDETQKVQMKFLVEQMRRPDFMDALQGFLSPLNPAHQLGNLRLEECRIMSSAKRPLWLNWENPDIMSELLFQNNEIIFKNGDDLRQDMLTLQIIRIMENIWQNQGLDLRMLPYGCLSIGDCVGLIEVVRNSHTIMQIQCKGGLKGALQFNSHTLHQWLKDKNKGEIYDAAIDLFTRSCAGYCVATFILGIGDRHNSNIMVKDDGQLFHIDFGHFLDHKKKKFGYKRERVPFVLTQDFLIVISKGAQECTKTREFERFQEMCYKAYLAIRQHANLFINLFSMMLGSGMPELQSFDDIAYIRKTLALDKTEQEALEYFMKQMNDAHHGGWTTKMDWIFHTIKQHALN

TERT-RPE1 [4] = experiment: Antimitotic activity against hTERT-RPE1 cells assessed as remaining cell arrest at 100 nM by immunofluorescence analysis relative to control; type: functional, Homo sapiens
[5] = molecular target: Serine/threonine-protein kinase Sgk1 (Homo sapiens, UniProt O00141); experiment: Inhibition of SGK (unknown origin)
NCI-H460 [6] = experiment: Antitumor activity against human NCI-H460 cells xenografted female BomTac:NMRI-Foxn1nu mouse assessed as increase in histone H3 phosphorylation at 60 mg/kg, iv after 24 hrs administration by immunohistochemical method; type: functional, organism-based
HeLa [7] = experiment: Antimitotic activity against human HeLa cells assessed as change in telophase at 25 nM incubated for 2 hrs by immunofluorescence analysis; type: functional, cell-based
HCT-116 [8] = experiment: Antitumor activity against human HCT-116 cells xenografted female BomTac:NMRI-Foxn1nu mouse assessed as apparent diffusion coefficient of water at 50 mg/kg, iv administration and measured on day 4 by MRI assay; type: functional, organism-based; settings: time 4.0 day
[9] = molecular target: T1, Dual specificity mitogen-activated protein kinase kinase 1 (Homo sapiens, UniProt Q02750); experiment: Inhibition of MKK1 (unknown origin)
T1 sequence (Q02750 whole entry): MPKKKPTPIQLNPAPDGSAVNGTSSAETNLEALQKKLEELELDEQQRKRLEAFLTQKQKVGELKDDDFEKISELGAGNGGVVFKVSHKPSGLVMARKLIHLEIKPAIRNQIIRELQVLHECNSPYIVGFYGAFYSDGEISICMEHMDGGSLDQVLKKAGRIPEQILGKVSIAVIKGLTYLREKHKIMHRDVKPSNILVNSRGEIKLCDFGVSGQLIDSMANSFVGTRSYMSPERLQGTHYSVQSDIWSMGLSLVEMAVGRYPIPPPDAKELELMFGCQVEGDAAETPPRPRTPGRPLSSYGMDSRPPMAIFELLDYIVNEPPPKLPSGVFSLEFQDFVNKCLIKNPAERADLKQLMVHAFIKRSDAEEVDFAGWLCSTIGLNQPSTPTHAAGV

Ephrin type-A receptor 3 = Ephrin type-A receptor 3 (Homo sapiens, UniProt P29320); experiment: Inhibition of Hek (unknown origin)
Sequence of Ephrin type-A receptor 3 (P29320 whole entry): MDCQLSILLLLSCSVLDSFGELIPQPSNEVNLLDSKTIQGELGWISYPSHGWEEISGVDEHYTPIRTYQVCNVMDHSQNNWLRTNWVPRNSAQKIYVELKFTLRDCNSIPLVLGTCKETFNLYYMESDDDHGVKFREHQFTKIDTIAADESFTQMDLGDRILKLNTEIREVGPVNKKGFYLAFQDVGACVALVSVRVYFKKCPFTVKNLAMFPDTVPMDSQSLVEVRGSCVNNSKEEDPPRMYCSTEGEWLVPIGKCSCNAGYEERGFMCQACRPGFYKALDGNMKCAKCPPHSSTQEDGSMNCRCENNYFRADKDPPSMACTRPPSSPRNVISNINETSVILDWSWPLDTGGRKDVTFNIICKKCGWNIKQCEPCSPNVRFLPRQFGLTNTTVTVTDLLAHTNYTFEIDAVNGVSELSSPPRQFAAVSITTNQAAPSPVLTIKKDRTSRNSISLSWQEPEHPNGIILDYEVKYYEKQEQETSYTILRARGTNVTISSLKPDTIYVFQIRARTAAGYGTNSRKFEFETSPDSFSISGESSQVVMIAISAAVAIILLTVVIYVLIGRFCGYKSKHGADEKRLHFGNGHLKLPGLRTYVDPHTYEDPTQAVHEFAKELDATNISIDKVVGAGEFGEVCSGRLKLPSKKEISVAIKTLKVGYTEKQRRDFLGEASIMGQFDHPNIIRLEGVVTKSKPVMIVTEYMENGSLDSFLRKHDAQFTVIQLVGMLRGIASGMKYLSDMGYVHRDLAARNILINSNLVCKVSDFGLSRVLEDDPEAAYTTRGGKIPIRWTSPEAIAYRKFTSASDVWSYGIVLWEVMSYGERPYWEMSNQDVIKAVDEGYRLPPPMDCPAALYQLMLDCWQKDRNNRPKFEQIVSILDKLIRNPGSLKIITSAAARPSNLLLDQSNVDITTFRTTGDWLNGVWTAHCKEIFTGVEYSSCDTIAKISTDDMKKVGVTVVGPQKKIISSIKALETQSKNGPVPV

HeLa [10] = experiment: Antimitotic activity against human HeLa cells assessed as appearance and distribution of phenotypes at 50 nM incubated for 2 hrs by immunofluorescence analysis; type: functional, cell-based
HeLa [11] = experiment: Antimitotic activity against human HeLa cells assessed as cell cycle at 10 nM incubated for 2 hrs by immunofluorescence analysis; type: functional, cell-based
[12] = molecular target: RAC-beta serine/threonine-protein kinase (Homo sapiens, UniProt P31751); experiment: Inhibition of PKBbeta (unknown origin)
NCI-H460 [13] = experiment: Antitumor activity against human NCI-H460 cells xenografted female BomTac:NMRI-Foxn1nu mouse assessed as increase in mitotic index at 60 mg/kg, iv after 24 hrs administration by immunohistochemical method; type: functional, organism-based
[14] = molecular target: Tyrosine-protein kinase CSK (Homo sapiens, UniProt P41240); experiment: Inhibition of CSK (unknown origin)
HeLa [15] = experiment: Antimitotic activity against human HeLa cells assessed as accumulation of mitotic cells with spindles at 25 nM incubated for 2 hrs by immunofluorescence analysis; type: functional, cell-based
[16] = molecular target: Mitogen-activated protein kinase 12 (Homo sapiens, UniProt P53778); experiment: Inhibition of p38gamma (unknown origin)
[17] = molecular target: RAF proto-oncogene serine/threonine-protein kinase (Homo sapiens, UniProt P04049); experiment: Inhibition of C-RAF (unknown origin)
HeLa [18] = experiment: Antimitotic activity against human HeLa cells assessed as cell arrest in G2/M phase at 60 nM incubated for 48 hrs by flow cytometric analysis; type: functional, cell-based
[19] = molecular target: Macrophage-stimulating protein receptor (Homo sapiens, UniProt Q04912); experiment: Inhibition of Ron (unknown origin)
Sequence of Macrophage-stimulating protein receptor (Q04912 25-304 limits assumed): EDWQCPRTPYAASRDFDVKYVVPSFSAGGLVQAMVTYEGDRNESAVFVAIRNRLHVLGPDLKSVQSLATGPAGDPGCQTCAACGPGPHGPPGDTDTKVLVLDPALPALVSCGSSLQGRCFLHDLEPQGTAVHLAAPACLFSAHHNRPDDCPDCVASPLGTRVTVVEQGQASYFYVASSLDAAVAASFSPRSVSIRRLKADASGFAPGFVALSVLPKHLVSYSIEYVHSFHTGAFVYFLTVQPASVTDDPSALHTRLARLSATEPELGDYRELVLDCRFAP
Sequence of Macrophage-stimulating protein receptor (Q04912 310-1400 limits assumed): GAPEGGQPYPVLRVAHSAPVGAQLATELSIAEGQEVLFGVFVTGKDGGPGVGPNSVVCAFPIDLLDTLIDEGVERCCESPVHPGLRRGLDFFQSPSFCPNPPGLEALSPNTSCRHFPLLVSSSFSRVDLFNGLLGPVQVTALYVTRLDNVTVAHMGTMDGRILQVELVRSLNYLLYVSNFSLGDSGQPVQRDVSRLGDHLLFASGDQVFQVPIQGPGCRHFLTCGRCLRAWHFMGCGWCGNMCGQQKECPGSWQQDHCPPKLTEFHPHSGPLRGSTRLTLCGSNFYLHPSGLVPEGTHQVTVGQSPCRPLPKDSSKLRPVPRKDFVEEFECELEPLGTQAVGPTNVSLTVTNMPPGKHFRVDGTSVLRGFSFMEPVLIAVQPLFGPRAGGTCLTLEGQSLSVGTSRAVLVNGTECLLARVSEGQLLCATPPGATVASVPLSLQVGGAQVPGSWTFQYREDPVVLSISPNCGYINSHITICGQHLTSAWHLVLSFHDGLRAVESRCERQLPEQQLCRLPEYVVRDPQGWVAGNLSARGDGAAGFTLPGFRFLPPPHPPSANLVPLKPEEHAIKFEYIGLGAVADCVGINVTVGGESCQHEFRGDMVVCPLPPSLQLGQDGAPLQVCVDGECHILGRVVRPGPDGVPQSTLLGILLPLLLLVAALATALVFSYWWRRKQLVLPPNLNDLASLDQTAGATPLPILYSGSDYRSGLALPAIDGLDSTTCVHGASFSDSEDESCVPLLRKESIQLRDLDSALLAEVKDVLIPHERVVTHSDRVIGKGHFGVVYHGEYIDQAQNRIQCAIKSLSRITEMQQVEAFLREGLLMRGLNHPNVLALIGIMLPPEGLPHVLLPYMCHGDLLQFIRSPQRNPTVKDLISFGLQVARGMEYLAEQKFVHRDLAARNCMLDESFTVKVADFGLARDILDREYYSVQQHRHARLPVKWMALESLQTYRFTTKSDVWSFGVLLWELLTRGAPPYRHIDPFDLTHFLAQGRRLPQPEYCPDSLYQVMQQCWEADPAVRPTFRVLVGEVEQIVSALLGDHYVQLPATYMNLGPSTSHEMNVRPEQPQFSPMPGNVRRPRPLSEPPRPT

NCI-H460 [20] = experiment: Antitumor activity against human NCI-H460 cells xenografted female BomTac:NMRI-Foxn1nu mouse assessed as appearance of cell apoptosis at 60 mg/kg, iv after 47 hrs administration by MRI assay; type: functional, organism-based
HeLa [21] = experiment: Antimitotic activity against human HeLa cells assessed as cell apoptosis at 60 nM incubated after 48 hrs by flow cytometric analysis; type: functional, cell-based
[22] = molecular target: T1, Dual specificity mitogen-activated protein kinase kinase 1; experiment: Inhibition of MEK1 (unknown origin)
[23] = molecular target: Serine/threonine-protein kinase Nek6 (Homo sapiens, UniProt Q9HC98); experiment: Inhibition of Nek6 (unknown origin)
Angiopoietin-1 receptor = Angiopoietin-1 receptor (Homo sapiens, UniProt Q02763); experiment: Inhibition of Tie2 (unknown origin)
Sequence of Angiopoietin-1 receptor (Q02763 whole entry): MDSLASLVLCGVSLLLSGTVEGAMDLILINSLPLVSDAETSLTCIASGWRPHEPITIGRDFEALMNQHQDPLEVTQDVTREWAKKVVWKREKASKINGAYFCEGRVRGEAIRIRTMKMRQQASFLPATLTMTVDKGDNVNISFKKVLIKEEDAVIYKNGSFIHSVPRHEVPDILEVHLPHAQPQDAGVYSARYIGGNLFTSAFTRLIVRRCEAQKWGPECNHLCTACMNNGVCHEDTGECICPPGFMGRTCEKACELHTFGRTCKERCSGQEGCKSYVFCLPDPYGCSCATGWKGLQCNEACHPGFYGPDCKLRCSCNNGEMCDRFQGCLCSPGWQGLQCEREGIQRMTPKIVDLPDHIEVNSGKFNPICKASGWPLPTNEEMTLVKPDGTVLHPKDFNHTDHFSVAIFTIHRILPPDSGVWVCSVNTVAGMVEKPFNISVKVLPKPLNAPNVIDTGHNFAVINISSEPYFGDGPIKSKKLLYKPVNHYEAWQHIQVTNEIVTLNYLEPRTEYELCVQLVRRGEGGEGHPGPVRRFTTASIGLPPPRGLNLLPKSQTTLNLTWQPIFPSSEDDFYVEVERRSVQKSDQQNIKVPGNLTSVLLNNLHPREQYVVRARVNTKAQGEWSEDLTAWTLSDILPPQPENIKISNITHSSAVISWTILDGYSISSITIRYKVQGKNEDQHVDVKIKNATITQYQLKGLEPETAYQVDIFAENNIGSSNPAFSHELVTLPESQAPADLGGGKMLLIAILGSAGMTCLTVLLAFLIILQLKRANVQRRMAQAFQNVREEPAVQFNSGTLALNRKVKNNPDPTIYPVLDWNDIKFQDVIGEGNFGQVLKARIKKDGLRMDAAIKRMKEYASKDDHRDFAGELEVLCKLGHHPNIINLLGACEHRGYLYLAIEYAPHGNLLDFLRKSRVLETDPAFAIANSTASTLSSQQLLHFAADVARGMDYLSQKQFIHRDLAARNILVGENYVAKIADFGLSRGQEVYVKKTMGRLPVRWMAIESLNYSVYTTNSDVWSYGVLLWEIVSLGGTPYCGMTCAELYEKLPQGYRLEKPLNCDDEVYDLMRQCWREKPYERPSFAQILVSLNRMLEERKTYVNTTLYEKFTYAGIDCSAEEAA

HeLa [24] = experiment: Antimitotic activity against human HeLa cells assessed as cell apoptosis at 60 nM incubated after 24 hrs by flow cytometric analysis; type: functional, cell-based
HeLa [25] = experiment: Antimitotic activity against human HeLa cells assessed as change in anaphase at 25 nM incubated for 2 hrs by immunofluorescence analysis; type: functional, cell-based
BXPC-3 = experiment: Antitumor activity against human BXPC-3 cells xenografted female BomTac:NMRI-Foxn1nu mouse assessed as T/C at 50 mg/kg, iv twice per week administrated for 2 consecutive days relative to control; type: functional; settings: time 4 day
NCI-H460 [26] = experiment: Antitumor activity against human NCI-H460 cells xenografted female BomTac:NMRI-Foxn1nu mouse assessed as appearance of massive tumor cell at 60 mg/kg, iv after 48 hrs administration by TUNEL staining; type: functional, organism-based
[27] = molecular target: Mitogen-activated protein kinase 8 (Homo sapiens, UniProt P45983); experiment: Inhibition of JNK1 (unknown origin)
[28] = molecular target: Platelet-derived growth factor receptor alpha (Homo sapiens, UniProt P16234); experiment: Inhibition of PDGFRa (unknown origin)
HeLa [29] = experiment: Antimitotic activity against human HeLa cells assessed as DNA breakdown at 60 nM incubated after 24 hrs by flow cytometric analysis; type: functional, cell-based
[30] = Toxicity in against human HCT-116 cells xenografted female BomTac:NMRI-Foxn1nu mouse assessed as body weight change at 40 mg/kg, iv once per week administrated for 2 consecutive days; type: organism-based; settings: in vivo, 48 h, time 2 day
HeLa [31] = experiment: Antimitotic activity against human HeLa cells assessed as accumulation in cleaved PARP p85 fragment at 60 nM incubated after 24 hrs by westernblot analysis; type: functional, cell-based
A549 = experiment: Antitumor activity against human A549 cells xenografted female BomTac:NMRI-Foxn1nu mouse assessed as T/C at 50 mg/kg, iv twice per week administrated for 2 consecutive days relative to control; type: functional; settings: time 4 day
[32] = molecular target: Fibroblast growth factor receptor 3 (Homo sapiens, UniProt P22607); experiment: Inhibition of FGFR3 (unknown origin)
HeLa [33] = experiment: Antimitotic activity against human HeLa cells assessed as DNA breakdown at 60 nM incubated after 48 hrs by flow cytometric analysis; type: functional, cell-based
Mus musculus = organism: Mus musculus; experiment: Inhibition of mouse Plk1
[34] = molecular target: Tyrosine-protein kinase ABL1 (Homo sapiens, UniProt P00519); experiment: Inhibition of Abl (unknown origin)
HeLa [35] = experiment: Antimitotic activity against human HeLa cells assessed as appearance of monopolar polo spindles at 100 to 1000 nM incubated for 2 hrs by immunofluorescence analysis; type: functional, cell-based; settings: dose 100-1000 nM
HCT-116 [36] = experiment: Antitumor activity against human HCT-116 cells xenografted female BomTac:NMRI-Foxn1nu mouse assessed as T/C at 40 mg/kg, iv once per week administrated for 2 consecutive days relative to control; type: functional; settings: time 4 day
HCT-116 [37] = experiment: Antitumor activity against human HCT-116 cells xenografted female BomTac:NMRI-Foxn1nu mouse assessed as tumor suppression at 40 mg/kg, iv twice per week administrated for 2 consecutive days relative to control; type: functional; settings: time 2 day
[38] = molecular target: Mitogen-activated protein kinase 14 (Homo sapiens, UniProt Q16539); experiment: Inhibition of p38alpha (unknown origin)
[39] = molecular target: Platelet-derived growth factor receptor beta (Homo sapiens, UniProt P09619); experiment: Inhibition of PDGFRb (unknown origin)
HeLa [40] = experiment: Antimitotic activity against human HeLa cells assessed as change in S phase at 60 nM incubated for 48 hrs by flow cytometric analysis; type: functional, cell-based
BRO melanoma cell line = experiment: Antiproliferative activity against human BRO melanoma cell line assessed as inhibition in cell growth incubated for 72 hrs by Alamar Blue dye based fluorescence spectrophotometric analysis; type: functional
HCT-116 [41] = experiment: Antitumor activity against human HCT-116 cells xenografted female BomTac:NMRI-Foxn1nu mouse assessed as induction in tumor regression at 50 mg/kg, iv twice per week administrated for 2 consecutive days relative to control; type: functional, organism-based; settings: time 4.0 day
[42] = molecular target: Mitogen-activated protein kinase 11 (Homo sapiens, UniProt Q15759); experiment: Inhibition of p38beta (unknown origin)
HeLa [43] = experiment: Antimitotic activity against human HeLa cells assessed as accumulation in cleaved PARP p85 fragment at 60 nM incubated after 48 hrs by westernblot analysis; type: functional, cell-based
[44] = Toxicity in against human HCT-116 cells xenografted female BomTac:NMRI-Foxn1nu mouse assessed as body weight change at 40 mg/kg, iv twice per week administrated for 2 consecutive days; type: organism-based; settings: in vivo, 96 h, time 4 day
TERT-RPE1 [45] = experiment: Antimitotic activity against hTERT-RPE1 cells assessed as mitotic cell appearing typical polo phenotype at 100 nM by immunofluorescence analysis relative to control; type: functional, Homo sapiens
[46] = molecular target: Receptor tyrosine-protein kinase erbB-4 (Homo sapiens, UniProt Q15303); experiment: Inhibition of ErbB4 (unknown origin)
HeLa [47] = experiment: Antimitotic activity against human HeLa cells assessed as arrest in G2/M phase measuring by accumulation in 4N DNA content at 10 nM incubated for 24 hrs by flow cytometric analysis; type: functional, cell-based
HeLa [48] = experiment: Antimitotic activity against human HeLa cells assessed as accumulation multipolar spindles at 100 to 2500 nM incubated for 2 hrs by immunofluorescence analysis; type: functional, cell-based; settings: dose 100-2500 nM
HeLa S3 = experiment: Antiproliferative activity against human HeLa S3 cells assessed as inhibition in cell growth incubated for 72 hrs by Alamar Blue dye based fluorescence spectrophotometric analysis; type: functional; settings: HeLa S3, 72 h
HeLa [49] = experiment: Antimitotic activity against human HeLa cells assessed as centrosomal gamma tubulin recruitment at 100 to 2500 nM incubated for 2 hrs by immunofluorescence analysis; type: functional, cell-based; settings: dose 100-2500 nM
HeLa [50] = experiment: Antimitotic activity against human HeLa cells assessed as accumulation in depolymerization of microtubules in interphase cells at 2500 nM incubated for 2 hrs by immunostaining; type: functional, cell-based
HeLa [51] = experiment: Antimitotic activity against human HeLa cells assessed as monopolar asters at 100 to 2500 nM incubated for 2 hrs by immunofluorescence analysis; type: functional, cell-based; settings: dose 100-2500 nM

- IC50 [1]: > 10 µM
- IC50 [2]: > 10 µM
- IC50 [3]: 2.41 µM
- IC50 [5]: > 10 µM
- IC50 [9]: > 10 µM
- IC50 (Ephrin type-A receptor 3): > 10 µM
- IC50 [12]: > 10 µM
- IC50 [14]: > 10 µM
- IC50 [16]: > 10 µM
- IC50 [17]: > 10 µM
- IC50 [19]: > 10 µM
- IC50 [22]: > 10 µM
- IC50 [23]: > 10 µM
- IC50 (Angiopoietin-1 receptor): 6.55 µM
- IC50 [27]: > 10 µM
- IC50 [28]: > 10 µM
- IC50 [32]: > 10 µM
- inhibition (Mus musculus): Active
- IC50 [34]: > 10 µM
- IC50 [38]: > 10 µM
- IC50 [39]: > 10 µM
- EC50 (BRO melanoma cell line): 0.002 µM
- IC50 [42]: > 10 µM
- IC50 [46]: 9.91 µM
Compound: CC[C@@H]1C(=O)N(C)c2cnc(Nc3ccc(C(=O)NC4CCN(C)CC4)cc3OC)nc2N1C1CCCC1 [BI-2536]
- Activity (TERT-RPE1 [4]): ~30%
- Activity (NCI-H460 [6]): Active
- Activity (HeLa [7]): inactive
- Activity (HCT-116 [8]): Active
- Activity (HeLa [10]): Active
- Activity (HeLa [11]): Active
- Activity (NCI-H460 [13]): Active
- Activity (HeLa [15]): Active
- Activity (HeLa [18]): Active
- Activity (NCI-H460 [20]): Active
- Activity (HeLa [21]): Active
- Activity (HeLa [24]): Active
- Activity (HeLa [25]): inactive
- T/C (BXPC-3): 5%
- Activity (NCI-H460 [26]): Active
- Activity (HeLa [29]): Active
- Activity [30]: Non-Toxic
- Activity (HeLa [31]): Active
- T/C (A549): 14%
- Activity (HeLa [33]): Active
- Activity (HeLa [35]): Active
- T/C (HCT-116 [36]): 16%
- Activity (HCT-116 [37]): 100%
- Activity (HeLa [40]): inactive
- Activity (HCT-116 [41]): Active
- Activity (HeLa [43]): Active
- Activity [44]: Non-Toxic
- Activity (TERT-RPE1 [45]): ~70%
- Activity (HeLa [47]): Active

- EC50 (HeLa S3): 0.045 µM
Compound: COc1cc(OC)c(/C=C/S(=O)(=O)Cc2ccc(OC)c(NCC(=O)O)c2)c(OC)c1 [RIGOSERTIB]
- Activity (HeLa [48]): Active
- Activity (HeLa [49]): Active
- Activity (HeLa [50]): Active
- Activity (HeLa [51]): inactive
